The record followed here is patent US20260000629A1, “FERROPTOSIS INHIBITOR” (TOHOKU UNIVERSITY, priority 2020, published 2026).

For one assay, the system named is H9C2 cell line. As to the kind of experiment: Ferroptosis induction treatment, cell viability by WST-8 assay, H9C2 cell line. It counts as cell-based, rat. The following applies: for cell viability level compared with ferroptosis inducer alone: with 50 nM RSL3, 2 μM elastin, 0.3 μM ML210, 0.3 μM ML162, 0.5 μM FIN56, 100 μM BSO or 5 μM FINO2, FIG. 2; for decrease in the cell viability level caused by ferroptosis inducer: with 100 μM BSO, 2 μM elastin, 50 nM RSL3 or 0.5 μM FIN56, FIG. 1. An excerpt: Three different cell lines (the H9C2 cell line, which is a rat cardiac myoblast cell line, the NR[…] cell line, which is a rat kidney fibroblast, and the C2C12 cell line, which is a mouse myoblast cell line) were obtained from the American Type Culture Collection (ATCC); the Panc-1 cell line, which is a human pancreatic cancer cell line, was obtained the Cell Resource Center for Biomedical Research, Institute of Development, Aging and Cancer, Tohoku University/Cell Bank; and the HT22 cell line, which is a mouse hippocampus nerve cell line, was purchased from Merck Millipore Co. All the cell lines were subcultured in a Dulbecco's Modified Eagle Medium (DMEM) culture solution containing 100-fold diluted 1% penicillin-streptomycin (26253-84; manufactured by Nacalai Tesque, Inc.) (hereinafter simply referred to as “DMEM culture solution”) to which 10% fetal bovine serum (FBS) and 4.5 g glucose/L were added (hereinafter referred to as “DMEM [high glucose] culture solution”) under conditions of 5% CO2/20% O2 and 37° C. 4000 cells of five different cell lines (the H9C2 cell line, the Panc-1 cell line, the NR[…] cell line, the C2C12 cell line, and the HT22 cell line) were seeded on a 96-well plate and cultured overnight in a DMEM culture solution containing 1.0 g glucose/L (low glucose) and 1% FBS (hereinafter referred to as “DMEM [low glucose low serum] culture solution”). After the procedure of the above-mentioned, ferroptosis was induced in cells from the above-mentioned five different cell lines in the presence of each of […] of the present invention (vitamin K1, vitamin K2 [menaquinone-4], vitamin K3, or vitamin K3 hydroquinone) (see Table 1) or a known ferroptosis inhibitor (ferrostatin 1). Specifically, cells from the H9C2 cell line were cultured in the presence of each of six different test substances (10 μM vitamin K1 [manufactured by FUJIFILM Wako Pure Chemical Corporation], 10 μM menaquinone-4 [manufactured by Sigma-Aldrich], 3 μM or 1 μM menadione [manufactured by Sigma-Aldrich], 1 μM vitamin K3 hydroquinone [manufactured by Toronto Research Chemicals], or 0.3 μM ferrostatin 1 [manufactured by Cayman]) at various concentrations and each of eight different ferroptosis inducers (100 μM BSO [manufactured by Sigma-Aldrich], 1.5 μM or 2 μM elastin [manufactured by Cayman], 50 nM RSL3 [manufactured by Selleck Chemicals], 0.3 μM ML210 [manufactured by Cayman], 0.3 μM ML162 [manufactured by Cayman], 0.5 μM FIN56 [manufactured by Cayman], 5 μM FINO2 [manufactured by Cayman], or 4 mM glutamic acid [manufactured by Sigma-Aldrich]) for 60 hours for BSO treatment, for 48 hours for elastin treatment, RSL3 treatment, and FIN56 treatment, and for 24 hours for ML210 treatment, ML162 treatment, FINO2 treatment, and glutamic acid treatment. Cell viability levels were measured by WST-8 assay using Cell Count Reagent SF. The cell viability level was calculated as a relative value of the cell survival level when the cell viability level when cultured in the absence of a test substance and a ferroptosis inducer was set to 1.
For orientation: Tetrazolium dyes change colour on reduction, which living cells bring about.

Assay [1] concerns lipid peroxy radicals (LOO·). As to the kind of experiment: Scavenging ability against lipid peroxy radicals, AA/LOX system using NBD-Pen fluorescence probe. The following applies: 100 μM test substance; AA and LOX, PBS pH 7.4, 37° C.; vs absence of test substance; FIG. 6. It counts as biochemical. As to the method: The scavenging ability against lipid peroxy radicals (LOO·) was analyzed by the AA/LOX system using an NBD-Pen fluorescence probe in accordance with the method in “Nat Chem Biol 12:608-613, 2016.” Specifically, a mixture solution of 0.1% DMSO or 100 μM each of four different test substances (vitamin K1 [manufactured by FUJIFILM Wako Pure Chemical Corporation], vitamin K2 [menaquinone-4; manufactured by Sigma-Aldrich], menadione [manufactured by Sigma-Aldrich], or vitamin K3 hydroquinone [manufactured by Toronto Research Chemicals]) and PBS (pH 7.4) containing 500 μM arachidonic acid (manufactured by Sigma-Aldrich) and 1 mM dithiothreitol (DTT) was prepared and added to a 96-well plate, then 5 μM NBD-Pen fluorescence probe and 10 μg/mL LOX solution (manufactured by Sigma-Aldrich) were added, and the fluorescence level (excitation light, 470 nm; fluorescence wavelength, 530 nm) was measured using a microplate reader (Spectra Max M2e; manufactured by Molecular Devices) at 37° C. […] In the AA/LOX system using an NBD-Pen fluorescence probe, an oxidation reaction of AA by LOX produces a lipid peroxide (LOOH), a lipid peroxy radical (LOO·) is produced from the produced LOOH by Fenton reaction using an iron ion (Fe^2+) as a catalyst, and a scavenging ability against lipid peroxy radicals is detected using the level of NBD-Pen-derived fluorescence produced by a reaction of the produced lipid peroxy radical with NBD-Pen as an indicator.

The next assay relates to Panc-1 cell line. Kind of assay: Ferroptosis induction treatment, cell viability by WST-8 assay, Panc-1 cell line. It counts as cell-based, human. The following applies: with 5 μM elastin, FIG. 3A. An excerpt:
(§1) Three different cell lines (the H9C2 cell line, which is a rat cardiac myoblast cell line, the NR[…] cell line, which is a rat kidney fibroblast, and the C2C12 cell line, which is a mouse myoblast cell line) were obtained from the American Type Culture Collection (ATCC); the Panc-1 cell line, which is a human pancreatic cancer cell line, was obtained the Cell Resource Center for Biomedical Research, Institute of Development, Aging and Cancer, Tohoku University/Cell Bank; and the HT22 cell line, which is a mouse hippocampus nerve cell line, was purchased from Merck Millipore Co. All the cell lines were subcultured in a Dulbecco's Modified Eagle Medium (DMEM) culture solution containing 100-fold diluted 1% penicillin-streptomycin (26253-84; manufactured by Nacalai Tesque, Inc.) (hereinafter simply referred to as “DMEM culture solution”) to which 10% fetal bovine serum (FBS) and 4.5 g glucose/L were added (hereinafter referred to as “DMEM [high glucose] culture solution”) under conditions of 5% CO2/20% O2 and 37° C. 4000 cells of five different cell lines (the H9C2 cell line, the Panc-1 cell line, the NR[…] cell line, the C2C12 cell line, and the HT22 cell line) were seeded on a 96-well plate and cultured overnight in a DMEM culture solution containing 1.0 g glucose/L (low glucose) and 1% FBS (hereinafter referred to as “DMEM [low glucose low serum] culture solution”). After the procedure of the above-mentioned, ferroptosis was induced in cells from the above-mentioned five different cell lines in the presence of each of five different vitamin K group compounds of the present invention (vitamin K1, vitamin K2 [menaquinone-4], vitamin K3, or vitamin K3 hydroquinone) (see Table 1) or a known ferroptosis inhibitor (ferrostatin 1). […] Cell viability levels were measured by WST-8 assay using Cell Count Reagent SF. The cell viability level was calculated as a relative value of the cell survival level when the cell viability level when cultured in the absence of a test substance and a ferroptosis inducer was set to 1.

The next assay has as its system NRK49F cell line. As to the kind of experiment: Ferroptosis induction treatment, cell viability by WST-8 assay, NRK49F cell line. It counts as cell-based, rat. The following applies: with 500 μM BSO, FIG. 3B.
Description: as §1

The test system of the next assay is C2C12 cell line. As to the kind of experiment: Ferroptosis induction treatment, cell viability by WST-8 assay, C2C12 cell line. It counts as cell-based, mouse. The settings on record: with 500 μM BSO, FIG. 3C.
Description: as §1

A further assay deals with HT22 cell line. As to the kind of experiment: Ferroptosis induction treatment (glutamic acid), cell viability by WST-8 assay, HT22 cell line. It counts as cell-based, mouse. The settings on record: with 4 mM glutamic acid, FIG. 4.
Description: as §1

In another assay the test system is AHI model mice. As to the kind of experiment: In vivo analysis using acute hepatic injury (AHI) model mice (LPS and D-GalN). The following applies: oral 20 mg/kg at 12 h and 2 h before LPS and D-GalN, vs AHI/solvent treatment group. The arrangement: species or system mouse. The protocol: An AHI model mouse was prepared by administering lipopolysaccharide (LPS) and D-galactosamine (D-GalN). Specifically, eight to nine week-old wild-type male mice (C57BL/6N; manufactured by CLEA) were divided into three groups (the wild type group [n=4], the AHI/solvent treatment group [n=7], and the AHI/VK2 treatment group [n=8]). At 12 hours and two hours before administration of LPS and D-GalN, 0.5% methylcellulose solution (solvent) was orally administered at a dose of 20 mg/kg (body weight) to the AHI/solvent treatment group, and a methylcellulose solution containing vitamin K2 (menaquinone-4) was orally administered at a dose of 20 mg (vitamin K2)/kg (body weight) to the AHI/VK2 treatment group. For LPS and D-GalN administration, PBS containing LPS and D-GalN was injected into the peritoneal cavity at a dose of 5 μg (LPS)/kg (body weight) and 500 mg (D-GalN)/kg (body weight) to the two AHI groups (that is, the AHI/solvent treatment group and the AHI/VK2 treatment group) (refer to “Sci Rep 7:1884, 2017”). The mice were sacrificed at six hours after injection, and blood and liver tissue were collected. The plasma GPT levels were measured for the collected blood using Fuji Dri-chem Slide GPT/ALT-P III (manufactured by Fujifilm Medical). Further, the collected liver tissue was fixed in 10% neutral buffered formalin and embedded in paraffin. The paraffin-embedded liver tissue was sliced to prepare liver tissue sections and subjected to hematoxylin and eosin (HE) staining. Further, deparaffinization treatment was performed by heating the liver tissue sections in a 0.01 M citric acid buffer solution (pH 6.0) at 120° C. for five minutes to prepare deparaffinized liver tissue sections. Immunohistological staining of the deparaffinized liver tissue sections using an anti-HEL antibody (50-fold diluted; clone 5F12; manufactured by JaICA) was performed in accordance with a usual method using a streptavidin-biotin-alkaline phosphatase kit (Histofine SAB-AP [M] kit; manufactured by Nichirei Corporation) and Vector Red Substrate kit (manufactured by Vector Laboratories). Further, dead cells were detected by the TUNEL method using Apop Tag Peroxidase In Situ Apoptosis Detection Kit (manufactured by Merck Millipore).

On to `CCOC(=O)c1ccc(NC2CCCCC2)c(N)c1` [ferrostatin 1], for which, in the assay with H9C2 cell line (0.3 μM test substance), the “cell viability level compared with ferroptosis inducer alone” value is recorded as “significantly increased” and the “decrease in the cell viability level caused by ferroptosis inducer” value (from here on “decrease”) is given as “significantly suppressed”.

In the case of `CC1=CC(=O)c2ccccc2C1=O` [menadione, Menadione], the “NBD-Pen fluorescence signal level (scavenging of lipid peroxy radicals)” value (shortened to “NBD-Pen fluorescence signal level”) in assay [1] is recorded as “decreased”. Besides, the “decrease” value with Panc-1 cell line (3 μM test substance), in the assay with NRK49F cell line (3 μM test substance), with C2C12 cell line (3 μM test substance), in the assay with HT22 cell line (3 μM test substance) and with H9C2 cell line (1 μM test substance) was “significantly suppressed” each time. Besides, in the assay on H9C2 cell line (3 μM test substance), the “cell viability level compared with ferroptosis inducer alone” value is “significantly increased”.

In the case of `CC1=C(C/C=C(\C)CCCC(C)CCCC(C)CCCC(C)C)C(=O)c2ccccc2C1=O` (centres unmarked) [vitamin K1, Phylloquinone], in assay [1], the “NBD-Pen fluorescence signal level” value is recorded as “decreased”. Further, the “decrease” value with Panc-1 cell line (10 μM test substance), in the assay with NRK49F cell line (10 μM test substance), in the assay with C2C12 cell line (10 μM test substance), in the assay with HT22 cell line (10 μM test substance) and in the assay with H9C2 cell line (10 μM test substance) was “significantly suppressed” in each case. In addition, in the assay with H9C2 cell line (10 μM test substance), the “cell viability level compared with ferroptosis inducer alone” value is “significantly increased”.

On to `CC(C)=CCCC(C)=CCCC(C)=CCC/C(C)=C/CC1=C(C)C(=O)c2ccccc2C1=O` [vitamin K2, Menaquinone-4 (MK-4)], for which the “NBD-Pen fluorescence signal level” value in assay [1] is given as “decreased”. Moreover, the “HEL detection level in liver tissue (lipid peroxide marker)” value in the assay with AHI model mice (FIG. 5A) is “substantially decreased”. Besides, in the assay with AHI model mice (FIG. 5A), the “severe hemorrhage in the liver tissue (HE staining)” value is reported as “relieved”. The “plasma GPT level” value with AHI model mice (FIG. 5B) was “significantly decreased”. Moreover, in the assay on AHI model mice (FIGS. 5A and 5C), the “proportion of dead cells in liver tissue (TUNEL method)” value is given as “significantly decreased”. Further, the “decrease” value with Panc-1 cell line (10 μM test substance), in the assay on NRK49F cell line (10 μM test substance), in the assay with C2C12 cell line (10 μM test substance), with HT22 cell line (10 μM test substance) and with H9C2 cell line (10 μM test substance) was “significantly suppressed” throughout. Also, in the assay on H9C2 cell line (10 μM test substance), the “cell viability level compared with ferroptosis inducer alone” value is “significantly increased”.

For the molecule `Cc1cc(O)c2ccccc2c1O` [vitamin K3 hydroquinone, Menadiol], in assay [1], the “NBD-Pen fluorescence signal level” value is “decreased”. The “decrease” value in the assay with H9C2 cell line (1 μM test substance) was “significantly suppressed”.
